Here are results for seven compounds from publication PMC6479983, “Activity of Estafietin and Analogues on Trypanosoma cruzi and Leishmania braziliensis” (Molecules, 2019).

Broadly, the IC50 is the concentration at which inhibition is half-maximal. Broadly, the inhibition is the drop in the measured response relative to a control, in per cent.

In data set [1] the test system is L. braziliensis promastigotes. Nature of the data set: Leishmanicidal activity on L. braziliensis promastigotes ([3H] thymidine uptake assay). The format is cell-based, Leishmania braziliensis. Particulars: for IC50: Leishmania braziliensis, 72 h, 0-50 µg/mL, [3H] thymidine uptake; for Selectivity Index Promastigotes L. braziliensis: Vero CC50 relative to promastigote IC50. As to the method: Figure 4 Leishmanicidal activity of estafietin (1) and estafietin derivatives (2–5) on L. braziliensis promastigotes. Parasites were cultured for 72 h in the presence of each compound (0–50 µg/mL). The inhibition of parasite growth was evaluated by a [^3H] thymidine uptake assay. The percentage of inhibition was calculated as 100 − [(cpm of treated parasites)/(cpm of untreated parasites)] × 100. Values represent mean ± SEM from three independent experiments carried out in triplicate. Each treatment was compared to controls: parasites incubated with culture medium only. * p < 0.05, ** p < 0.01 and *** p < 0.005. TEXT PRINTED IN THE PICTURE: Estafietin (1): IC50 (μg/mL): 1.0 | 11βH,13-dihydroestafietin (2): IC50 (μg/mL): 1.3 | α and β epoxyestafietin (3a and 3b): IC50 (μg/mL): 7.8 | 11βH,13-methoxyestafietin (4): IC50 (μg/mL): 48.7 | 11βH,13-cianoestafietin (5): IC50 (μg/mL): 51.8
The growth inhibition of Leishmania braziliensis promastigotes was evaluated by the (^3H) thymidine [(^3H)T] uptake assay. Parasites (5 × 10^6) were settled at a final volume of 150 µL in a flat-bottom 96-well microplate and cultured at 28 °C in either the absence or the increasing concentrations of the pure compounds (0–50 µg/mL). After 72 h, 1 µC of [^3H]T was added to each well, and cultures were incubated for 16 h. Counts per minute (cpm) of triplicate cultures were measured by an automated liquid scintillation counter (Packard, Downers Grove, IL, USA). The percentage of inhibition was calculated as {100 − [(cpm of treated parasites/cpm of untreated parasites) × 100]}. The compound concentration at which the parasite growth was inhibited by 50% (IC50) was determined. Amphotericin B was used as positive control.
(§1) Results are presented as means ± SEM. The GraphPad Prism 5.0 software (GraphPad Software Inc., San Diego, CA, USA) was employed to carry out calculations. To calculate IC50 and CC50 values, the percentages of inhibition were plotted against the drug concentration and fitted with a straight line determined by a linear regression (Sigma Plot 10 software, (Systat Software, San Jose, CA, USA). Results presented are representative of three to four independent experiments.

Data set [2] has as its system Vero cells. In words: Host cell toxicity on Vero cells by the MTT method. The format is cell-based. As to the method: (§2) The cytotoxicity of the natural and synthetic compounds was evaluated on Vero cells by the MTT method. The 50% cytotoxic concentration (CC50) of each compound was determined. Selectivity indexes (SI) were calculated for T. cruzi trypomastigotes and amastigotes and for L. braziliensis promastigotes (Table 1).
(§3) Vero cells were employed to determine the viability by the 3-(4,5-dimethylthiazol-2yl)-2,5-diphenyltetrazolium bromide (MTT) method. Cells (5 × 10^5) were settled at a final volume of […] in a flat-bottom 96-well microplate and cultured at 37 °C in a 5% CO2 atmosphere in either the absence or the presence of increasing concentrations of the compounds (5–500 µg/mL). After 24 h, MTT was added at a final concentration of 1.5 mg/mL. Plates were incubated for 2 h at 37 °C. The purple formazan crystals formed were dissolved with […] of ethanol and the absorbance was read at 570 nm in a microplate reader. Results were calculated as the ratio between the optical density in the presence and absence of the compound multiplied by 100.
as §1

Data set [3] is described as follows: Host cell toxicity on Vero cells by the MTT method. The format is cell-based. The following applies: African green monkey, 24 h, 5-500 µg/mL, read-out: CC50 (50% cytotoxic concentration). How it is done: as §2, §3, §1
(In general: Tetrazolium dyes change colour on reduction, which living cells bring about.)

Data set [4] deals with T. cruzi bloodstream trypomastigotes. Nature of the data set: Trypanocidal activity on T. cruzi bloodstream trypomastigotes (counting of living parasites in Neubauer chamber). The format is cell-based, Trypanosoma cruzi. The following applies: for IC50: Trypanosoma cruzi, 24 h incubation, 0-100 µg/mL, living parasites counted, read-out: IC50 against T. cruzi bloodstream trypomastigotes; for Selectivity Index Trypomastigotes T. cruzi: Vero CC50 relative to trypomastigote IC50; for activity against the infective form of T. cruzi compared with estafietin (in words): trypomastigotes, discussion statement. As to the method:
Figure 2 Trypanocidal activity of estafietin (1) and estafietin derivatives (2–5) against T. cruzi bloodstream trypomastigotes. Bloodstream trypomastigotes were assayed in duplicate in the presence of 0 to 100 µg/mL of estafietin (1), 11βH,13-dihydroestafietin (2), α- (3a) and β-epoxyestafietin (3b) (1:4 mixture), 11βH,13-methoxyestafietin (4) and 11βH,13-cianoestafietin (5). Cultures were done in 96-well plates with 1.5 × 10^6 parasites/mL over 24 h. The living parasites were then counted in a Neubauer chamber. Symbols represent mean ± SEM. Each treatment was compared to controls: parasites incubated with culture medium only. * p < 0.05, ** p < 0.01 and *** p < 0.005. TEXT PRINTED IN THE PICTURE: Estafietin (1): IC50 (μg/mL): 25.2 | 11βH,13-dihydroestafietin (2): IC50 (μg/mL): 97.1 | α and β epoxyestafietin (3a and 3b): IC50 (μg/mL): 18.7 | 11βH,13-methoxyestafietin (4): IC50 (μg/mL): >100 | 1βH,13-cianoestafietin (5): IC50 (μg/mL): 78.1
The trypanocidal effect of the purified compounds was tested on transfected bloodstream trypomastigotes (Tulhauen strain). Briefly, mouse blood containing trypomastigotes was diluted in complete LIT medium to adjust the parasite concentration to 2 × 10^6/mL. Parasites were seeded in duplicate in a 96-well microplate in the presence of each compound (0–100 µg/mL) and controls and incubated at 4 °C for 24 h. The number of remaining living parasites in each sample was determined in 5 µL of cell suspension diluted 1/5 in lysis buffer (0.75% NH4Cl, 0.2% Tris, pH 7.2) and counted in a Neubauer chamber.
as §1

The test system of data set [5] is T. cruzi amastigotes. Nature of the data set: Inhibition of T. cruzi amastigote replication in Vero cells (β-galactosidase transfected parasites, CPRG). The format is cell-based, Trypanosoma cruzi. The following applies: for IC50: infected Vero cells, 0-100 µg/mL, β-galactosidase/CPRG readout, read-out: IC50 against T. cruzi amastigotes (intracellular forms); for Selectivity Index Amastigotes T. cruzi: Vero CC50 relative to amastigote IC50. As to the method:
Figure 3 Inhibition of T. cruzi amastigotes replication by estafietin (1) and estafietin derivatives (2–5). Mammalian cells (5 × 10^3 cells/well) were seeded in 96-well plates and infected 24 h later with transfected trypomastigotes expressing β-galactosidase. After 24 h of co-culture, plates were washed and compounds were added at 0–100 µg/mL in 150 µL medium. On day 6 post-infection, the assays were developed by the addition of CPRG (100 mM) and Nonidet P-40 (1%). Plates were incubated for 6 h and the optical density was read at 570 nm. Infected untreated mammalian cells were used as 100% infection control. The percentage of inhibition was calculated as 100 − {[(Absorbance of treated infected cells)/(Absorbance of untreated infected cells)] × 100}. Symbols represent mean ± SEM. Each treatment was compared to controls: parasites incubated with culture medium only. * p < 0.05, ** p < 0.01 and *** p < 0.005. TEXT PRINTED IN THE PICTURE: Estafietin (1): IC50 (μg/mL): 28.8 | 11βH,13-dihydroestafietin (2): IC50 (μg/mL): 83.0 | α and β epoxyestafietin (3a and 3b): IC50 (μg/mL): 2.0 | 11βH,13-methoxyestafietin (4): IC50 (μg/mL): 30.5 | 11βH,13-cianoestafietin (5): IC50 (μg/mL): 99.0
The effect of the compounds on intracellular forms of T. cruzi was assayed using β-galactosidase transfected parasites. Ninety-six well culture plates were seeded with nonphagocytic Vero cells at 5 × 10^3 per well in […] of culture medium and incubated for 24 h at 37 °C in a 5% CO2 atmosphere. Cells were then washed and infected with transfected bloodstream trypomastigotes expressing β-galactosidase at a parasite/cell ratio of 10:1. After […] of coculture, plates were washed twice with PBS to remove unbound parasites and each pure compound was added at different concentrations (0–100 µg/mL) in 150 µL of fresh complete RPMI medium without phenol red (Gibco, Rockville, MD, USA). Controls included infected untreated cells (100% infection control) and uninfected cells (0% infection control). The assay was developed by the addition of chlorophenolred-β-D-galactopyranoside (CPRG) (100 mM) and 1% Nonidet P40, 5 days later. Plates were incubated for 4–6 h at 37 °C and the absorbance was measured at 595 nm in a microplate reader (Bio-Rad Laboratories, Hercules, CA, USA). The percentage inhibition was calculated as 100 – {[(absorbance of treated infected cells)/(absorbance of untreated infected cells) × 100]} and the IC50 value was estimated. Benznidazole was used as positive control.
as §1

Data set [6] relates to T. cruzi epimastigotes. Also on record: method as in PMID 23815577. The following applies: series of 15 STLs; cited from earlier work.

≈ marks a conversion by molar mass, not a printed value. Entries after “also recorded” stand apart in the source; their conditions may differ.

With `C=C1CCC2C(COC)C(=O)OC2C2C1CC1OC12C` (stereo not shown) [Compound 4, 11βH,13-methoxyestafietin], the midpoint of inhibition in data set [1], the IC50, lay at 48.7 µg/mL (≈ 175 µM). In addition, in data set [2], the “toxicity on mammalian cells (in words)” value was “low toxicity; also recorded: not toxic”. Moreover, the CC50 at 24 h in data set [3] came to 316 µg/mL (≈ 1130 µM). For the same compound, in data set [4], the IC50 was more than 100 µg/mL, the “Selectivity Index Trypomastigotes T. cruzi” value is recorded as 3.1 and the “activity against the infective form of T. cruzi compared with estafietin (in words)” value (shortened to “activity … compared with estafietin (in words)”) is listed as “less active”. In addition, in data set [5] (Trypanosoma cruzi), the IC50 worked out at 30.5 µg/mL (≈ 110 µM). The “Selectivity Index Amastigotes T. cruzi” value in data set [5] is 10.3.
For `C=C1CCC2C(C)C(=O)OC2C2C1CC1OC12C` (stereo not shown) [Compound 2, 11βH,13-dihydroestafietin], in data set [1], half-maximal inhibition (IC50) required 1.3 µg/mL (≈ 5.24 µM) and the “Selectivity Index Promastigotes L. braziliensis” value was 126.6. The “toxicity on mammalian cells (in words)” value in data set [2] is “low toxicity”. Further, in data set [3], the CC50 at 24 h was found to be 165 µg/mL (≈ 663 µM). In addition, in data set [4], the IC50 amounted to 97.1 µg/mL (≈ 391 µM), the “Selectivity Index Trypomastigotes T. cruzi” value is on record as 1.7 and the “activity … compared with estafietin (in words)” value was “less active”. Besides, the IC50 in data set [5] (Trypanosoma cruzi) was determined as 83 µg/mL (≈ 334 µM). The “Selectivity Index Amastigotes T. cruzi” value in data set [5] came to 2.0.
As to `C=C1CC[C@H]2C(=C)C(=O)O[C@@H]2C2C1C[C@H]1O[C@@]21C` (stereo partly shown) [Compound 1, estafietin], in data set [1], inhibition was half-maximal at 1 µg/mL (≈ 4.06 µM) (IC50) and the “Selectivity Index Promastigotes L. braziliensis” value turned out to be 240.4. For the same compound, the “toxicity on mammalian cells (in words)” value in data set [2] is on record as “low toxicity”. For the same compound, the CC50 at 24 h in data set [3] was 240 µg/mL (≈ 976 µM). Also, in data set [4], the IC50 worked out at 25.2 µg/mL (≈ 102 µM) and the “Selectivity Index Trypomastigotes T. cruzi” value is reported as 9.5. In addition, the “activity on T. cruzi epimastigotes (in words)” value in data set [6] is listed as “significant activity”. For the same compound, in data set [5] (Trypanosoma cruzi), the IC50 is 28.8 µg/mL (≈ 117 µM). Besides, the “Selectivity Index Amastigotes T. cruzi” value in data set [5] stood at 8.3.
Turning to `C[C@@H]1[C@H](O)[C@@H](C)/C=C/C=C/C=C/C=C/C=C/C=C/C=C/[C@H](O[C@@H]2O[C@H](C)[C@@H](O)[C@H](N)[C@@H]2O)C[C@@H]2O[C@](O)(C[C@@H](O)C[C@@H](O)[C@H](O)CC[C@@H](O)C[C@@H](O)CC(=O)O[C@H]1C)C[C@H](O)[C@H]2C(=O)O` [Amphotericin B, reference compound], the IC50 in data set [1] was 0.48 µg/mL (≈ 0.519 µM).
Regarding `C=C1CCC2C(CC#N)C(=O)OC2C2C1CC1OC12C` (stereo not shown) [Compound 5, 11βH,13-cianoestafietin], in data set [1], it took 51.8 µg/mL (≈ 190 µM) to reach half-maximal inhibition (IC50) and the “Selectivity Index Promastigotes L. braziliensis” value amounted to 2.7. Also, in data set [2], the “toxicity on mammalian cells (in words)” value is given as “low toxicity”. Further, the CC50 at 24 h in data set [3] is 134 µg/mL (≈ 489 µM). Also, in data set [4], the IC50 is 78.1 µg/mL (≈ 286 µM), the “Selectivity Index Trypomastigotes T. cruzi” value was 1.7 and the “activity … compared with estafietin (in words)” value was “inactive”. In addition, the IC50 in data set [5] (Trypanosoma cruzi) was determined as 99 µg/mL (≈ 362 µM). In data set [5], the “Selectivity Index Amastigotes T. cruzi” value is listed as 1.3.
Turning to `C=C1C(=O)O[C@@H]2C3C(C[C@H]4O[C@@]34C)C3(CC[C@@H]12)CO3` (stereo partly shown) [Compound 3, epoxyestafietin], in data set [1], the concentration for half-maximal inhibition (IC50) was found to be 7.8 µg/mL (≈ 29.7 µM) and the “Selectivity Index Promastigotes L. braziliensis” value worked out at 1.0. The CC50 at 24 h in data set [3] was 8.1 µg/mL (≈ 30.9 µM). In data set [4], the IC50 was 18.7 µg/mL (≈ 71.3 µM) and the “Selectivity Index Trypomastigotes T. cruzi” value is reported as 0.4. In addition, the inhibition at 5 µg/mL in data set [5] (Trypanosoma cruzi, Vero, at a concentration of 5.0 µg/mL, read-out: percentage of inhibition of T. cruzi amastigotes) was more than 75%. Moreover, in data set [5] (Trypanosoma cruzi), the IC50 worked out at 2 µg/mL (≈ 7.62 µM). Further, in data set [5], the “Selectivity Index Amastigotes T. cruzi” value came to 4.0.
In the case of `O=C(Cn1ccnc1[N+](=O)[O-])NCc1ccccc1` [Benznidazole, reference compound], the IC50 came to 11.6 µg/mL (≈ 44.6 µM) in data set [4] and 1.8 µg/mL (≈ 6.92 µM) in data set [5] (Trypanosoma cruzi).
